# Measurements: patent US20130115286A1, “ORAL ADMINISTRATION FORMS FOR CONTROLLED RELEASE OF RIFAMPICIN FOR THE TREATMENT OF BACTERIAL INFECTIONS AND INFLAMMATORY DISEASES OF THE GASTROINTESTINAL TRACT” (priority 2010, published 2013)
# Key:
# [1] = cited from earlier work
# [2] = determined by the intestinal pH values; cited from earlier work
# [3] = in vivo, cited from earlier work
# [4] = oral, 600 mg, healthy volunteers; cited from earlier work
# [5] = Stability tests on rifampicin in acid, neutral and basic environments (FIG. 1); format: physicochemical
compound,measurement,setting,value
CO[C@H]1/C=C/O[C@@]2(C)Oc3c(C)c(O)c4c(O)c(c(/C=N/N5CCN(C)CC5)c(O)c4c3C2=O)NC(=O)/C(C)=C\C=C\[C@H](C)[C@H](O)[C@@H](C)[C@@H](O)[C@@H](C)[C@H](OC(C)=O)[C@@H]1C [rifampicin],pKa,[1],1.7
same,solubility in the intestine,[2],1000 to 6000 µg/mL
same,dose eliminated in the urine,[3]; po,approx. 20 % of the dose
same,amount present in the plasma relative to that eliminated by the renal route,[3],5 times
same,maximum blood concentration (Cmax),[4],9000 ng/mL
same,stability,[5]; acid environment,less stable
same,stability,[5]; neutral and weakly alkaline environments,sufficiently stable
